Structures are written as SMILES.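 Compound exposure: 48 hours, 5 concentrations, 96-well plates. Here, GI50 denotes the concentration required for 50% inhibition of growth.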 Calls of active or inactive are those of the source. Rule as the data show it: active = GI50 up to about 1.1 µM and inactive = higher.

The GI50 is the concentration that inhibits growth by half.

Experiment in all cases: DTP human tumour cell line panel, 48 h
Experiment [1] deals with SNB-19.
Experiment [2] relates to HOP-92.
Experiment [3] has as its system NCI-H522.
For experiment [4], the system named is SK-OV-3.
Experiment [5] has as its system PC-3.
For experiment [6], the system named is LOX IMVI.
The subject of experiment [7] is SF-268.
Experiment [8] concerns CAKI-1.
The test system of experiment [9] is UACC-257.
Experiment [10] deals with K562.
The subject of experiment [11] is MDA-N.
For experiment [12], the system named is BT-549.
The subject of experiment [13] is SN12C.
For experiment [14], the system named is 786-0.
Experiment [15] has as its system OVCAR-8.
Experiment [16] has as its system HCT-116.
The test system of experiment [17] is CCRF-CEM.
Experiment [18] concerns SR.
In experiment [19] the test system is HL-60.

For the compound `CC(C)(C)C1=CC(C)(n2[nH]c(=O)n(-c3ccccc3)c2=O)C=C(C(C)(C)C)C1=O`, the GI50 in experiment [1], in experiment [2], in [3], in [4], in [5] and in [6] was > 100 µM (inactive) throughout. The GI50 in experiment [7] was > 100 µM (inactive); in experiment [8], > 100 µM (inactive); in [9], > 100 µM (inactive); in experiment [10], 47 µM (inactive); in [11] it was > 100 µM (inactive); in experiment [12] it was > 100 µM (inactive). Further, the GI50 in [13], in experiment [14], in experiment [15] and in experiment [16] was > 100 µM (inactive) in each case.

With `CC(C)=CCc1ccc2[nH]c3c(c2c1)C(=O)C(=O)C(C)=C3C(O)C(C)O` (centres undefined), the GI50 in experiment [1] is 17 µM (inactive); in [2], 1.51 µM (inactive); in experiment [3] it was 1.69 µM (inactive); in experiment [4] it was 16.2 µM (inactive); in experiment [5], 9.57 µM (inactive); in experiment [6] it was 2 µM (inactive). Further, the GI50 in experiment [7] is 12.9 µM (inactive); in experiment [17], 1.55 µM (inactive); in [8], 4.38 µM (inactive); in experiment [9] it was 2.06 µM (inactive); in experiment [10] it was 2.07 µM (inactive); in experiment [11], 3.06 µM (inactive). For the same compound, the GI50 in experiment [18] was 2.45 µM (inactive); in experiment [19] it was 0.769 µM (active); in [13] it was 8.55 µM (inactive); in experiment [14], 1.87 µM (inactive); in experiment [15] it was 2.13 µM (inactive); in [16], 1.78 µM (inactive).

For `OC(c1ccoc1)c1cc2ccccc2s1` (centres undefined), the GI50 in [1], in experiment [2], in [3], in experiment [4], in experiment [5] and in [6] was > 10 µM (inactive) throughout. Moreover, the GI50 in experiment [7], in [17], in [8], in [9], in experiment [10] and in experiment [11] was > 10 µM (inactive) throughout. In addition, the GI50 in experiment [18], in experiment [19], in experiment [13], in [14], in experiment [15] and in [16] was > 10 µM (inactive) each time.

For the compound `CC(C)(CN1CCCCC1)C(/C=C/c1ccc(Cl)c(Cl)c1)=N\NC(=O)N/N=C(/C=C/c1ccc(Cl)c(Cl)c1)C(C)(C)CN1CCCCC1`, the GI50 was 1.69 µM (inactive) in [1]; 1.82 µM (inactive) in experiment [3]; 1.92 µM (inactive) in [4]; > 10 µM (inactive) in experiment [5]; 1.12 µM (inactive) in experiment [6]; 1.57 µM (inactive) in [7]. Also, the GI50 was 1.76 µM (inactive) in experiment [17]; 1.71 µM (inactive) in experiment [8]; 1.63 µM (inactive) in experiment [9]; 0.325 µM (active) in experiment [10]; 1.42 µM (inactive) in experiment [11]; > 10 µM (inactive) in experiment [12]. The GI50 is 1.52 µM (inactive) in experiment [19]; 1.77 µM (inactive) in experiment [13]; 1.48 µM (inactive) in experiment [14]; 1.87 µM (inactive) in [15]; 0.908 µM (active) in experiment [16].

These data come from ChEMBL document CHEMBL1201862, “PubChem BioAssay data set” (2004).
